Measurements as given in patent US9296723B2, “NAMPT inhibitors” (AbbVie Inc., priority 2012, dated 2016).

Tests used:
NAMPT [1] = biological target: T1, NAMPT (Homo sapiens, UniProt P43490); assay: Time-Resolved Fluorescence Resonance Energy Transfer (TR-FRET) Binding Assay of NAMPT; settings: 6.8 nM NAMPT, 200 nM probe, equilibrated 3 hours, no substrates
Protocol: Determination of the utility of compounds having Formula (I) as binders to and inhibitors of NAMPT was performed using Time-Resolved Fluorescence Resonance Energy Transfer (TR-FRET) binding assays.
Time-Resolved Fluorescence Resonance Energy Transfer (TR-FRET) Binding Assay of NAMPT
Six L were transferred to 384-well low-volume plates ([…] #3673). To this, 12 L of a 1.5× solution containing enzyme, probe and antibody were added. […] Reactions were equilibrated at room temperature for 3 hours prior to reading on an Envision multi-label plate reader (Perkin Elmer; Ex=337 nm, Em=520 and 495 nm). Time-resolved FRET ratios (Em520/Em495) were normalized to controls, plotted as a function of compound concentration and fit with the four-parameter logistic equation to determine IC50s.

NAMPT [2] = biological target: T1, NAMPT; assay: TR-FRET Binding Assay of NAMPT with PRPP; settings: 2 nM NAMPT, 2 nM probe, 200 µM PRPP and 2.5 mM ATP, equilibrated 16 hours
Protocol: Time-Resolved Fluorescence Resonance Energy Transfer (TR-FRET) Binding Assay of NAMPT with PRPP
Compound handling and data processing were identical to the assay in the absence of substrates (above). Final concentrations were 1× assay buffer, 2% DMSO, 2 nM NAMPT, 2 nM probe, 1 nM Tb-anti-His antibody (Invitrogen #PV5895), 200 µM PRPP and 2.5 mM ATP. Reactions were equilibrated for 16 hours prior to measurement to allow for potential enzymatic modification of test compounds.

PC3 cells = assay: NAMPT Cell Proliferation Assay (Cell Titer Glo); assay type: cell-based; settings: Homo sapiens, PC-3, 120 h, incubated 5 days, cell viability
Protocol: NAMPT Cell Proliferation Assay
PC3 cells were seeded in 96-well black plates (Corning #3904) at 500 cells/well in 90 µl of RPMI media containing 10% heat-inactivated FBS and incubated overnight at 37° C. and 5% CO2 to allow cells to attach to wells. The following day, test compounds were serially diluted in neat DMSO to 1000× final concentrations prior to dilution with RPMI media to 10× and 1% DMSO. Ten L of the 10× compounds were then transferred to wells containing cells to produce a dose response of 10-fold dilutions from […]. Cells were incubated for 5 days at 37° C. and 5% CO2, then cell viability was measured using Cell Titer Glo reagent (Promega #G7571). Percent inhibition values were calculated and fitted to a sigmoidal dose response curves using Assay Explorer software to determine IC50s.

T1 sequence (P43490 whole entry): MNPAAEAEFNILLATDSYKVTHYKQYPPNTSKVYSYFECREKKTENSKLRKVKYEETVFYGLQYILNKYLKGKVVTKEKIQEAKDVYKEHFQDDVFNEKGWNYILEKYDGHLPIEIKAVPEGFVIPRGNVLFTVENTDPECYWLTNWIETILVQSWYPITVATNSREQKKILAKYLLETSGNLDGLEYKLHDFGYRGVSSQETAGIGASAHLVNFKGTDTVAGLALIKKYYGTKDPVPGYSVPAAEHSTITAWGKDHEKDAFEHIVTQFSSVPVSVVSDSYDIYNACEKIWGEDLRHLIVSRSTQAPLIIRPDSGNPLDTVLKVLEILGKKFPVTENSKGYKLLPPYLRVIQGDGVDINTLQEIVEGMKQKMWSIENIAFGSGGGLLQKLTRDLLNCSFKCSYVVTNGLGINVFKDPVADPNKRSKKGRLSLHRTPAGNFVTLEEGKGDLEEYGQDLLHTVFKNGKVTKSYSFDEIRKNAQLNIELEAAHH

SMILES	IC50 (NAMPT [1]) [nM]	IC50 (NAMPT [2]) [nM]	IC50 (PC3 cells) [nM]
O=C(CCC(F)(F)F)N1CC(c2ccc(NC(=O)N3CC(c4cccnc4)C3)cc2)C1 [Example 213, 3-(pyridin-3-yl)-N-{4-[1-(4,4,4-trifluorobutanoyl)azetidin-3-yl]phenyl}azetidine-1-carboxamide]	87.3	0.352	–
CCC(C)(C)CN1CC(c2ccc(NC(=O)N3CC(c4cccnc4)C3)cc2)C1 [Example 257, N-{4-[1-(2,2-dimethylbutyl)azetidin-3-yl]phenyl}-3-(pyridin-3-yl)azetidine-1-carboxamide]	598	0.223	–
CC(=O)N[C@@H](CC(C)C)C(=O)N1CC(c2ccc(NC(=O)N3CC(c4cccnc4)C3)cc2)C1 [Example 209, N-{4-[1-(N-acetyl-L-leucyl)azetidin-3-yl]phenyl}-3-(pyridin-3-yl)azetidine-1-carboxamide]	24	0.694	–
CC(C)C(C)C(=O)N1CC(c2ccc(NC(=O)N3CC(c4cccnc4)C3)cc2)C1 (stereo not drawn) [Example 230, N-{4-[1-(2,3-dimethylbutanoyl)azetidin-3-yl]phenyl}-3-(pyridin-3-yl)azetidine-1-carboxamide]	38.8	0.305	–
CC(C)CCN1CCC(c2ccc(NC(=O)N3CC(c4cccnc4)C3)cc2)CC1 [Example 236, N-{4-[1-(3-methylbutyl)piperidin-4-yl]phenyl}-3-(pyridin-3-yl)azetidine-1-carboxamide]	667	0.21	–
O=C(CC(F)(F)F)N1CC[C@H](Oc2ccc(NC(=O)N3CC(c4cccnc4)C3)cc2)C1 [Example 96, 3-(pyridin-3-yl)-N-(4-{[(3S)-1-(3,3,3-trifluoropropanoyl)pyrrolidin-3-yl]oxy}phenyl)azetidine-1-carboxamide]	265	–	171
CC(C)C(=O)N1CC[C@@H](Oc2ccc(NC(=O)N3CC(c4cccnc4)C3)cc2)C1 [Example 77, N-(4-{[(3R)-1-(2-methylpropanoyl)pyrrolidin-3-yl]oxy}phenyl)-3-(pyridin-3-yl)azetidine-1-carboxamide]	61.9	–	17.3
COCC(=O)N1CCC(Oc2ccc(NC(=O)N3CC(c4cccnc4)C3)cc2)CC1 [Example 48, N-(4-{[1-(methoxyacetyl)piperidin-4-yl]oxy}phenyl)-3-(pyridin-3-yl)azetidine-1-carboxamide]	206	–	95.8
O=C(Nc1ccc(O[C@@H]2CCN(C(=O)[C@H]3CCCO3)C2)cc1)N1CC(c2cccnc2)C1 [Example 79, 3-(pyridin-3-yl)-N-[4-({(3R)-1-[(2R)-tetrahydrofuran-2-ylcarbonyl]pyrrolidin-3-yl}oxy)phenyl]azetidine-1-carboxamide]	92.9	–	41.4
O=C(CC1CC1)N1CC[C@H](Oc2ccc(NC(=O)N3CC(c4cccnc4)C3)cc2)C1 [Example 93, N-(4-{[(3S)-1-(cyclopropylacetyl)pyrrolidin-3-yl]oxy}phenyl)-3-(pyridin-3-yl)azetidine-1-carboxamide]	138	–	87.6
O=C(Nc1ccc(O[C@H]2CCN(C(=O)[C@H]3CCCO3)C2)cc1)N1CC(c2cccnc2)C1 [Example 91, 3-(pyridin-3-yl)-N-[4-({(3S)-1-[(2R)-tetrahydrofuran-2-ylcarbonyl]pyrrolidin-3-yl}oxy)phenyl]azetidine-1-carboxamide]	320	–	111
O=C(Nc1ccc(O[C@H]2CCN(C(=O)c3ccccc3)C2)cc1)N1CC(c2cccnc2)C1 [Example 95, N-(4-{[(3S)-1-benzoylpyrrolidin-3-yl]oxy}phenyl)-3-(pyridin-3-yl)azetidine-1-carboxamide]	79.1	–	66.2
CCC(C)CC(=O)N1CC[C@@H](Oc2ccc(NC(=O)N3CC(c4cccnc4)C3)cc2)C1 (stereo partly drawn) [Example 298, N-(4-{[(3R)-1-(3-methylpentanoyl)pyrrolidin-3-yl]oxy}phenyl)-3-(pyridin-3-yl)azetidine-1-carboxamide]	35.2	–	11.2
O=C(Nc1ccc(OC2CCN(C(=O)[C@H]3CCCO3)CC2)cc1)N1CC(c2cccnc2)C1 [Example 5, 3-(pyridin-3-yl)-N-[4-({1-[(2R)-tetrahydrofuran-2-ylcarbonyl]piperidin-4-yl}oxy)phenyl]azetidine-1-carboxamide]	56.8	–	28.3
CC(C)C(=O)N1CCC(c2ccc(NC(=O)N3CC(c4cccnc4)C3)cc2)CC1 [Example 56, N-{4-[1-(2-methylpropanoyl)piperidin-4-yl]phenyl}-3-(pyridin-3-yl)azetidine-1-carboxamide]	27.4	–	8.83
CC(C)CCC(=O)N1CC[C@@H](Oc2ccc(NC(=O)N3CC(c4cccnc4)C3)cc2)C1 [Example 315, N-(4-{[(3R)-1-(4-methylpentanoyl)pyrrolidin-3-yl]oxy}phenyl)-3-(pyridin-3-yl)azetidine-1-carboxamide]	48.7	–	54.2
O=C(CCN1CCCCC1)N1CC[C@@H](Oc2ccc(NC(=O)N3CC(c4cccnc4)C3)cc2)C1 [Example 327, N-[4-({(3R)-1-[3-(piperidin-1-yl)propanoyl]pyrrolidin-3-yl}oxy)phenyl]-3-(pyridin-3-yl)azetidine-1-carboxamide]	450	–	189

The next molecules have a lower IC50 (NAMPT [1]) than those just listed; values first:

IC50 (NAMPT [1]) [nM]	IC50 (NAMPT [2]) [nM]	IC50 (PC3 cells) [nM]	SMILES
14	0.268	–	Cn1cccc1C(=O)N1CC(c2ccc(NC(=O)N3CC(c4cccnc4)C3)cc2)C1 [Example 225, N-(4-{1-[(1-methyl-1H-pyrrol-2-yl)carbonyl]azetidin-3-yl}phenyl)-3-(pyridin-3-yl)azetidine-1-carboxamide]
19.6	0.31	–	O=C(Nc1ccc(C2CN(C(=O)c3nccs3)C2)cc1)N1CC(c2cccnc2)C1 [Example 228, 3-(pyridin-3-yl)-N-{4-[1-(1,3-thiazol-2-ylcarbonyl)azetidin-3-yl]phenyl}azetidine-1-carboxamide]
13.6	–	17.3	CC1(C(=O)N2CC[C@@H](Oc3ccc(NC(=O)N4CC(c5cccnc5)C4)cc3)C2)CCCCC1 [Example 316, N-[4-({(3R)-1-[(1-methylcyclohexyl)carbonyl]pyrrolidin-3-yl}oxy)phenyl]-3-(pyridin-3-yl)azetidine-1-carboxamide]
16.7	–	5.13	O=C(Nc1ccc(OC2CN(C(=O)c3cscn3)C2)cc1)N1CC(c2cccnc2)C1 [Example 147, 3-(pyridin-3-yl)-N-(4-{[1-(1,3-thiazol-4-ylcarbonyl)azetidin-3-yl]oxy}phenyl)azetidine-1-carboxamide]
20.1	–	16.7	CC1(C(=O)N2CCC(c3ccc(NC(=O)N4CC(c5cccnc5)C4)cc3)C2)CC1 (stereo not drawn) [Example 269, N-(4-{1-[(1-methylcyclopropyl)carbonyl]pyrrolidin-3-yl}phenyl)-3-(pyridin-3-yl)azetidine-1-carboxamide]
22.6	–	37.8	CC(C)Cn1cc(-c2ccc(NC(=O)N3CC(c4cccnc4)C3)cc2)cn1 [Example 157, N-{4-[1-(2-methylpropyl)-1H-pyrazol-4-yl]phenyl}-3-(pyridin-3-yl)azetidine-1-carboxamide]
15.6	–	8.57	O=C(CC1CCOCC1)N1CCC(c2ccc(NC(=O)N3CC(c4cccnc4)C3)cc2)CC1 [Example 50, 3-(pyridin-3-yl)-N-{4-[1-(tetrahydro-2H-pyran-4-ylacetyl)piperidin-4-yl]phenyl}azetidine-1-carboxamide]
